Reference: US8476455B2, “1-N-phenyl-amino-1h-imidazole derivatives and pharmaceutical compositions containing them” (Laboratoire Theramex, priority 2003, dated 2013)

Tests used:
human aromatase = molecular target: T1, human aromatase (Homo sapiens, UniProt P11511); assay: Dual aromatase and steroid sulfatase activities in JEG-3 cells: aromatase readout; assay type: cell-based; details: footnote c: dual aromatase and sulfatase activity, nd: not detected, read-out: Aromatase activity IC50 (nM) ± S.E.M.
T1 construct: The JEG-3 cell line, derived from a human placental choriocarcinoma, constitutively overexpresses human aromatase; endogenous in cells; host or cells: JEG-3 (human placental choriocarcinoma)
T1 sequence (P11511 1-503): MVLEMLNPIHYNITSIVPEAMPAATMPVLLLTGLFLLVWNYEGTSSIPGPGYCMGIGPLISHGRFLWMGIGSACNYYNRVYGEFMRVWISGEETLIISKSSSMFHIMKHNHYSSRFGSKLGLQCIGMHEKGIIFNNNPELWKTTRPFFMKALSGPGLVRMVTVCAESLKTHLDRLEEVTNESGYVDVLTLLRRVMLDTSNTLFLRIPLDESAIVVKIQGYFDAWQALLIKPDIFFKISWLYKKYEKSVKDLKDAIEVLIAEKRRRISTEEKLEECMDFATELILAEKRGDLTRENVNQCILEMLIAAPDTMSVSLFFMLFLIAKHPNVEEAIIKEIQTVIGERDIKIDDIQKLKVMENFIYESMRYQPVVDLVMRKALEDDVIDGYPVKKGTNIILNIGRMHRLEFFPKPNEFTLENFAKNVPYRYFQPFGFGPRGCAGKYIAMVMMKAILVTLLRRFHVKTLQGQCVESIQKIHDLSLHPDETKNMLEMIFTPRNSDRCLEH
Protocol: Assays were carried out with cells in logarithmic growth phase on 96-well microplates. 24 h before studies, cells were seeded in decomplemented fetal calf serum (dFCS) supplemented medium. The medium was removed 24 h later and cells were rinsed with PBS to eliminate any trace of dFCS. Then, ^3H-E1S was added in dFCS free medium, followed by test compounds at concentrations ranging from 10^−12 M to 10^−5 M. After 4 h of treatment, the medium was transferred into 96-deep-well microplates and centrifuged at 200×g for 10 min to pellet cells before toluene extraction. A fraction of the medium was used for toluene extraction in order to separate the conjugated substrate from non-conjugated products. The radioactivity in the toluene phase was measured by liquid scintillation counting. […] Finally, estrone sulfatase activity was expressed in pmoles of ^3H-E1+^3H-E2 formed/4 hours/mg DNA and estrone sulfatase inhibition as a percentage of control activity without inhibitor.
In order to evaluate the inhibitory potency of DASI compounds in parallel on both human aromatase and steroid sulfatase activities, a new in vitro model was set up using JEG-3 cells. The experimental conditions of the steroid sulfatase model previously described was adopted with slight modifications: the presence of the two substrates ^3-HE1S and 1β-^3H-androstenedione into the medium and an incubation period of 2 hours. Results were expressed in pmoles of product formed (^3H-E1+^3H-E2 or ^3H2O)/2 hours/mg DNA (Table 1).

[1] = molecular target: human carbonic anhydrase II (Homo sapiens, UniProt P00918); assay: Human carbonic anhydrase II activity (p-nitrophenyl acetate, colorimetric); assay type: biochemical; details: read-out: Human carbonic anhydrase II activity IC50 (nm) ± S.E.M.
Protocol: Briefly, in this assay, human carbonic anhydrase II catalyses the conversion of p-nitrophenyl acetate into pnitrophenol. The potential inhibitory effect of test compounds was evaluated by colorimetric determination of prnitrophenol produced during the enzymatic reaction. The optical density levels obtained without inhibitor will be referred to as “total activity”. The levels obtained without Inhibitor and without the enzyme will be referred to as “blank” in order to assess any interference with the substrate during the assay (Table 2).

steroid sulfatase = assay: Anti uterotrophic/anti steroid sulfatase activity in vivo; parameters: species or system rat
Protocol: Wistar female rats were ovariectomized and left to rest for 4 weeks. Prior to treatment, the absence of cyclicity was checked by vaginal smears. Animals were supplemented with estrone sulfate (EIS) at 50 μg/kg/day s.c., alone or combined with oral administration of potential sulfatase inhibitors, at 1 mg/kg/day for 4 days. The uteri were removed, freed of adjacent tissue and wet weighed (Table 3).
Estrone sulfatase activity is measured according to the method described by Purohit et al., with slight modifications. Briefly, uteri were thawed, weighed and homogenized. Aliquots of the supernatant were treated with dextran-coated charcoal and assayed for sulfatase. E1S activity is assessed after 30 min of incubation with 5 nM of ^3H-E1S and 20 μM of unlabelled E1S as substrate. Estrone sulfatase activity is expressed as pmol/h/mg protein and reported as percentage of inhibition vs E1S; for uterus weights, results are expressed as % of inhibition of the E1S induced stimulation

MCF7 cells = assay: ER+ human breast tumor tissue xenografted into nude rats; assay type: in vivo, nude rat (Rnu/Rnu); details: for Volume variations (expressed as % of E1S positive control group): oral 5 mg/kg/day, nude rats supplemented with E1S
Protocol: MCF7 cells (ATCC), derived from human breast adenocarcinoma, were injected subcutaneously in ovariectomized athymic nude mice supplemented with a daily administration of subcutaneous estradiol. Xenograft volumes were determined weekly. After 8 weeks, tumor volumes reached 1000 mm3, providing 500 mg samples of estrogen responsive tissues for each animals. At this time each tumor was sliced and regrafted into naïve ovariectomized nude rat (Rnu/Rnu). Then animals were treated with estrone sulfate as precursor of estradiol by the steroid sulfatase pathway. When tumor volumes reached significant increase, distinct from the placebo, animals were randomized and separated in two groups. The first group was treated with Ex 45 and supplemented with daily administration of estrone sulfate. The second one was sham administered with the vehicle and supplemented with the same dosage of estrone sulfate. Ex 45 was orally administered at 5 mg/kg/day for 5 weeks. Xenografts were measured weekly by electronic Caliper and compared to the estrone sulfate group. (Table 5).

Cl.N#Cc1ccc(N(Cc2ccc(OS(N)(=O)=O)c(Br)c2)n2ccnc2)cc1 [Ex 45, Sulfamic acid 2-bromo-4-{[N-(4-cyanophenyl)-N-(1H-imidazol-1yl)amino]methyl}phenyl ester, hydrochloride]
IC50 (human aromatase): < 1 nM | IC50 [1]: 0.0162 ± 0.0033 µM | inhibition of E1S (sulfatase) concluded from uterus weight inhibition (steroid sulfatase; concluded from linear correlation between sulfatase inhibition and uterus weight inhibition (WO 2004/101545)): > 90% | % inhibition (uterus weight) (steroid sulfatase; ovariectomized Wistar female rats, E1S 50 μg/kg/day s.c., oral 1 mg/kg/day for 4 days, % of inhibition of the E1S induced stimulation): 70% | Volume variations (expressed as % of E1S positive control group) (MCF7 cells; Day 7): 0% | Volume variations (expressed as % of E1S positive control group) (MCF7 cells; Day 28): −26% | Volume variations (expressed as % of E1S positive control group) (MCF7 cells; Day 35): −44% | Volume variations (expressed as % of E1S positive control group) (MCF7 cells; Day 42): −39% | decrease in tumor volume (MCF7 cells; at the end of the experiments, after five weeks of daily treatment, 5 mg/kg/day oral): 40% | tumor volumes (in words) (MCF7 cells; vs groups only treated with estrone sulfate (E1S)): did not increased | melting point: 145 °C
